# Legend:
# [1] = tested on: TC-1 tumour; assay: TC-1 tumour model, IDO-Pep1 with 1-MT (Example 9); assay type: in vivo, C57BL/6 mice; details: 1-MT 2 mg/ml in drinking water; IDO-Pep1 100 μg/mouse s.c.
# Description: The efficacy of the vaccines was assessed by overall survival.
# 4-6 week-old C57BL/6 mice were injected with 70,000 cell/ mouse of TC-1 cells. Treatment in respective groups was started when tumour reached an average size of approximately 0.075 cm^3 (approx. 10 days after tumour inoculation). For vaccination mouse IDO epitope, IDO-Pep1 was used. Mice were vaccinated subcutaneously with IDO Pep-1 at a dosage of 100 μg/mouse in combination with a Pan-HLADR-binding epitope (PADRE; aK-Cha-[sequence]a, 20 μg/mouse) and QuilA (10 μg/mouse). Mice were vaccinated two-three times with one-week interval, and the efficacy of the peptide vaccines was assessed by measuring tumour volume and/or survival. A group of mice were treated with 1-methyl tryptophan (1-MT) given in drinking water (2 mg/ml) for the duration of the study, and additional group of mice were treated with both IDO-Pep1 and 1-MT.
# [2] = tested on: PBMC; assay: Direct IFN-γ ELISpot of patient PBMC stimulated with IO102 peptide; assay type: cell-based, human; details: patient PBMC at baseline, 5 μM peptide
# [3] = tested on: IDO-specific T cell cultures; assay: Intracellular cytokine staining of IO102 stimulated T-cell cultures; assay type: cell-based, human; details: after four weeks of in vitro IO102 stimulation, patients #02, #05, #07
# Description: PBMCs were stimulated with IO102 peptide in X-vivo 15 with 5% human AB serum and 120 U/ml IL2 (Novartis, Denmark) in 24 well plates (Nunc, Fischer Scientific). Initially, 20 μM peptide was used, and the cultures were re-stimulated every 7 days with a log10 decreased concentration of peptide for every week. Cell-cultures were supplemented with new IL2 every 7-10 days. Cells were kept at a concentration of 3-4×10^6/well.
# For enrichment and expansion of the IDO-specific T cells, cultured cells were restimulated, after four weeks of culture, with 20 μM peptide and enriched with the TNF-α Secretion Assay (Miltenyi Biotec) according to the manufacturer's instructions. Cells were peptide stimulated 2.5 hours before staining with the primary antibody. Enriched cells were expanded in a modified rapid expansion protocol (see below).
# T cells enriched for IDO-reactivity were expanded, and approximately 1-2×10^5 cells were used initially. […] Cultures were regularly assessed with regard to cell-numbers and colour of the media, and transferred to T80 or T175 flasks in addition to adding new media if appropriate. Cells were harvested after total 14 days of culture and either analyzed directly or cryopreserved in […] AB serum and 10% dimethyl sulphoxide. […]
# [4] = tested on: CMV-specific CD8 T cells; assay: Boost effect on CMV peptide-induced stimulation of T cells (tetramer staining, Example 2); assay type: cell-based; details: peptide added to CMV stimulated cell cultures, day 15
# Description: Day 1: • Buffy coat samples were thawed, washed twice, resuspended in medium. Cells were counted. • Cells were then added to the wells of cell culture plates at 5×10^6/0.5 ml in X-VIVO+5% HS • Wells were stimulated with CMV peptide for 2 hours at room temperature. The CMV peptide used was HCMV pp65 495-504 ([…]). • After 2 hours IDO5, IO102 or an irrelevant HIV peptide used as control were added according to Table X and plates incubated for additional 2 hours at room temperature. • Added 1500 microL X-VIVO/5% HS to each well and placed plates in an incubator at 37° C.
# Day 2 and 9: • IL2 was added ([…]
# Day 8: • Wells were restimulated with IDO5, IO102 or HIV peptides, added according to table X before incubation for 2 hours at room temperature. • After restimulation the contents of each well were split in two and 1.5 ml X-VIVO+5% HS/well was added. • Plates were placed in an incubator at 37° C.
# Day 15: • Cells were harvested and analysed by flow cytometry. • The percentage of CMV-specific CD8 T cells in each well was identified by using a CD8 monoclonal antibody (mAb) as well as the tetramer complexes HLA-A2/CMV pp65 495-504. • As control, cells were in addition stained with the tetramer complex HLA-A2/HIV-1 po1476-484 and CD8 mAb (data not shown).
# [5] = tested on: THP-1 cells; assay: 51Cr-release assay, PBMC killing of THP-1 (Example 4); assay type: cell-based; details: peptide 0.1 μM, day 17, range of E/T ratios
# Description: (§1) Buffycoats were thawed (day 0), washed twice, resuspended in medium, counted and plated into wells as set out in Table Z4. THP-1 cells were irradiated with 30 GY and washed twice in medium. THP-1 cells were counted and added to PBMC containing wells as set out in Table Z4 (total volume 2 ml). Plates were placed in an incubator at 37 degrees. On days 7 and 14, 1 ml supernatant/well was removed. Cells were harvested and analyzed for cytotoxic activity on day 17. A standard ^51Cr-release assay was used to measure the cytotoxic potential of the peptide treated PBMCs. ^51Cr labeled THP-1 cells were used as target cells and peptide treated PBMCs as effector cells. Triton-X treated wells was used as maximum measurable lysis and medium alone as minimum lysis.
# % Specific lysis=((cpmsample−cpmminimum)/(cpmmaximum−cpmminimum))×100%
# [6] = tested on: THP-1 cells; assay: 51Cr-release assay, PBMC killing of THP-1 (Example 5); assay type: cell-based; details: peptide 0.1 μM
# Description: as §1, with “Z5.” for “Z4.”, “Z5” for “Z4”, “day 7,” for “days 7 and 14,”, “removed. Fresh irradiated THP-1 cells were prepared and counted as above and 1 ml added to the wells as shown in Table Z5” for “removed.”, “23.” for “17.”
# % specific lysis=((CPMsample−cpmminimum)/(cpmmaximum−cpmminimum))×100%
# [7] = tested on: CT26 tumours; assay: CT26 tumour model, prophylactic vaccination (Example 10); assay type: in vivo, BALB/c mice; details: 100 μg peptide + 30 μg CpG in Montanide, 7 days prior to tumour challenge
# Description: BALB/c mice were prophylactically vaccinated with a mouse IDO peptide IDO-EP2 ([…]; SEQ ID NO: 34) and challenged with CT26 tumours 7 days later. The efficacy of the peptide vaccine was assessed by tumour burden. The mouse IDO peptide sequence (IDO-Pep1) was selected to provide a murine analog for the human IDO peptides tested in the earlier Examples, because the sequence of murine IDOL differs to that of human IDO1.
# 6-10 week-old BALB/c mice were immunized by subcutaneous injection at the base of the tail of 100 μg peptide IDO-EP2+30 μg CpG in 100 μL, Montanide adjuvant [Montanide ISA 51 VG (Seppic)] prepared as a 1:1 emulsification. Immunizations were carried out 7 days prior to tumour challenge. For CT26 tumour cell engraftment, each mouse received two subcutaneous injections (one on each flank) of 1×10^5 CT26 in 100 μL serum free DMEM. Caliper measurements of tumour length and width were recorded every 3-4 days beginning at day 6. Tumour volume was calculated using the formula 0.52(L×W^2). Mice were euthanized when the combined tumour volume reached the defined endpoint of approximately 2,000 mm^3.
compound,measurement,setting,value
"Cn1cc(C[C@H](N)C(=O)O)c2ccccc21 [1-MT, 1-methyltryptophan]",Therapeutic efficacy (survival),[1],modest therapeutic efficacy
"DTLLKALLEIASCLEKALQVF (listed as Homo sapiens) [IO102, 21 amino acid peptide, residues 194-214 of indoleamine 2,3-dioxygenase]",Pre-treatment IFN-γ ELISpot responses towards IO102,[2],none of the patients had detectable pre-treatment responses
same,Cytokine-positive T cells upon stimulation with IO102,[3],"enrichment of cytokine-positive T cells was demonstrated, primarily CD4+"
same,Fraction of CMV-specific T cells,[4],larger fraction of CMV-specific T cells compared to adding IDO5/IO101
same,Allogenic killing (lysis) of THP-1 cells by PBMCs,[5],enhanced the allogenic killing of the THP-1 cells
same,Allogenic killing of THP-1 cells compared to control peptide IDO scrambled,"[6]; day 23, E/T ratios 2:1-60:1",enhanced the allogenic killing of the THP-1 cells
same,Lysis of THP-1 cells compared to IDO5 peptide,"[6]; day 23, low E/T ratios",more efficient lysis of THP-1 cells
LPTLSTDGL (listed as Homo sapiens) [IDO-EP2],Anti-tumour effect (tumour volume),[7],anti-tumour protective effect

# Reference: patent US20220257741A1, “COMBINATION THERAPY FOR CANCER” (IO Biotech ApS, priority 2016, published 2022)
